The text below walks through data of ChEMBL document CHEMBL4346660, “Cryptolepine and aromathecin based mimics as potent G-quadruplex-binding, DNA-cleavage and anticancer agents: Design, synthesis and DNA targeting-induced apoptosis” (Eur J Med Chem, 2019).

Molecules are shown by their SMILES. Calls of active or inactive are those of the source. No cut-off for these calls is given here.

Experiment [1] deals with T1, DNA topoisomerase I (Bos taurus) (UniProt F1MN93).
T1 sequence (whole entry): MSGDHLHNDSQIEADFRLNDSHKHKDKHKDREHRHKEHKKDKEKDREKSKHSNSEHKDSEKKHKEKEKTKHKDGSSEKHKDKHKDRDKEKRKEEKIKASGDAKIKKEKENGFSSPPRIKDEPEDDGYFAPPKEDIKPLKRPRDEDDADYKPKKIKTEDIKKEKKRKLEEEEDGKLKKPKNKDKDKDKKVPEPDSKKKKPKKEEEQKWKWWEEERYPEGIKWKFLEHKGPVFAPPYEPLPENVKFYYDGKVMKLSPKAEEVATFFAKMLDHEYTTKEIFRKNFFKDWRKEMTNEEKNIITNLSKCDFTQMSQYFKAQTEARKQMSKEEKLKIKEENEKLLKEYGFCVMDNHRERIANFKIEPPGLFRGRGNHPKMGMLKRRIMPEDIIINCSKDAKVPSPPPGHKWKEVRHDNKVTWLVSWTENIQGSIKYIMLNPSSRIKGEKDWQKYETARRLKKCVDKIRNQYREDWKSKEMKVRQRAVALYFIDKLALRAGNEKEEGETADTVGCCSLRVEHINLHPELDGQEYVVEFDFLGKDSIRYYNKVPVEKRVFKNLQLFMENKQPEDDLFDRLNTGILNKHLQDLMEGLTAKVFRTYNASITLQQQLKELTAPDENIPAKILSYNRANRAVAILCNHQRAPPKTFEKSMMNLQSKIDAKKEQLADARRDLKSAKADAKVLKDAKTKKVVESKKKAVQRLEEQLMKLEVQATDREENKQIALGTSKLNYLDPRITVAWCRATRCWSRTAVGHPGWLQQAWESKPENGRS
Put plainly: Inhibition of calf thymus topoisomerase1-mediated relaxation of supercoiled pBR322 DNA at 5 uM measured after 30 mins by ethidium bromide staining based agarose gel electrophoresis.

Experiment [2] has as its system MGC-803. In words: Induction of apoptosis in human MGC803 cells assessed as necrotic cells at 1 uM incubated for 24 hrs by Annexin V-FITC/propidium iodide staining based flow cytometry (reference value: 1.81 +/- 0.09 %). The format is functional.
In experiment [3] the test system is MGC-803. Put plainly: Induction of apoptosis in human MGC803 cells assessed as necrotic cells at 2.5 uM incubated for 24 hrs by Annexin V-FITC/propidium iodide staining based flow cytometry (reference value: 1.81 +/- 0.09 %). The format is functional. (Flow cytometry measures light scatter and fluorescence of single cells or particles in a stream.)

For `CN(C)CCCNc1c2c(nc3ccc(F)cc13)-c1ccccc1C2`, in experiment [1], the inhibition result is “Active”. The Activity is 4.69% in the experiment with MGC-803 [2] and 4.01% in the experiment with MGC-803 [3].
